Among the data in US8124766B2, “Inhibitors of diacylglycerol acyltransferase” (Madrigal Pharmaceuticals, Inc., priority 2008, dated 2012) are IC50 values, retold here.

As usually defined, the IC50 is the concentration that inhibits the measured activity by half.

In this test the test system is DGAT. In words: DGAT Phospholipid FlashPlate Assay. It counts as biochemical. To be noted: DGAT pellet, DAG-coated PL-FlashPlate, 14C-Pal-CoA, 37° C. for 1 hour; read-out: DGAT Inhibition Activity IC50. Put shortly: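 DGAT membrane pellet (0.13 mg protein/ml diluted stock) reacted 1 h at 37 °C with 14C-palmitoyl-CoA (8.3 μM diluted stock) on FlashPlates coated with 500 μM DAG, in Tris-HCl pH 7.5, 100 mM NaCl. Scintillation counts converted to % inhibition; IC50 by 4-parameter logistic fit.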
`COc1cccc2c(C)c(C(=O)Nc3ccc(N4CCN(C(=O)CC(C)(C)C(=O)O)CC4)cc3)[nH]c12` [Example 74, 4-(4-{4-[(7-Methoxy-3-methyl-1H-indole-2-carbonyl)-amino]-phenyl}-piperazin-1-yl)-2,2-dimethyl-4-oxo-butyric acid]: the IC50 was determined as 64 nM. As for `COc1cccc2c(C)c(C(=O)Nc3ccc(N4CCN(C(=O)[C@H]5CCC[C@@H]5C(=O)O)CC4)cc3)[nH]c12` [Example 75, (1S,2S)-2-(4-{4-[(7-Methoxy-3-methyl-1H-indole-2-carbonyl)-amino]-phenyl}-piperazine-1-carbonyl)-cyclopentanecarboxylic acid], the figure is 372 nM; as for `COc1cccc2c(C)c(C(=O)Nc3ccc(N4CCN(C(=O)[C@H]5CC[C@H](C(=O)O)CC5)CC4)cc3)[nH]c12` [Example 76, trans-4-(4-{4-[(7-Methoxy-3-methyl-1H-indole-2-carbonyl)-amino]-phenyl}-piperazine-1-carbonyl)-cyclohexanecarboxylic acid], 58 nM. Then `COc1cccc2c(C)c(C(=O)Nc3ccc(C4CCN(C(=O)[C@H]5CC[C@H](C(=O)O)CC5)CC4)cc3)[nH]c12` [Example 77, trans-4-(4-{4-[(7-Methoxy-3-methyl-1H-indole-2-carbonyl)-amino]phenyl}-piperidine-1-carbonyl)-cyclohexanecarboxylic acid], with 57 nM. Then `CCOc1ccc2c(C)c(C(=O)Nc3ccc(N4CCN(C(=O)OC(C)(C)C)CC4)cc3)oc2c1OCC` [Example 78, 4-{4-[(6,7-Diethoxy-3-methyl-benzofuran-2-carbonyl)-amino]-phenyl}-piperazine-1-carboxylic acid tert-butyl ester], with 848 nM; and `COCc1c(C(=O)Nc2ccc(N3CCN(C(=O)OC(C)(C)C)CC3)cc2)oc2ccccc12` [Example 79, 4-{4-[(3-Methoxymethyl-benzofuran-2-carbonyl)-amino]-phenyl}-piperazine-1-carboxylic acid tert-butyl ester], with 940 nM. On to `CCOC(=O)N1CCC(Oc2ccc(NC(=O)c3oc4c(OCC)c(OCC)ccc4c3C)cc2)C1` (stereo not drawn) [Example 80, 3-{4-[(6,7-Diethoxy-3-methyl-benzofuran-2-carbonyl)-amino]-phenoxy}-pyrrolidine-1-carboxylic acid ethyl ester], for which the IC50 was 583 nM. As for `CCOC(=O)N1CCC(Oc2ccc(NC(=O)c3oc4ccccc4c3COC)cc2)C1` (stereo not drawn) [Example 81, 3-{4-[(3-Methoxymethyl-benzofuran-2-carbonyl)-amino]-phenoxy}-pyrrolidine-1-carboxylic acid ethyl ester], the figure is 720 nM; as for `COCCN(C)c1ccc(NC(=O)c2oc3c(F)cccc3c2C)cn1` [Example 82, 7-Fluoro-3-methyl-benzofuran-2-carboxylic acid {6-[(2-methoxy-ethyl)-methyl-amino]pyridin-3-yl}-amide], 430 nM.
